Assay results reported in article PMC9698607, “Dual Functionalized Liposomes for Selective Delivery of Poorly Soluble Drugs to Inflamed Brain Regions” (Pharmaceutics, 2022).

Legend:
Recombinant human MMP2 = target: T1, Recombinant human MMP2 (Homo sapiens, UniProt P08253); assay: MMP2 activity assay on MSLPs (HPLC); assay type: biochemical; conditions: 48 h, 37 °C, 0.1 μg/mL rhMMP2, 100 μM MSLP, 50 mM Tris, 10 mM CaCl2, 150 mM NaCl, 0.05% Brij 35, pH 7.5
T1 construct: purchased R&D Systems
T1 sequence (P08253 110-660): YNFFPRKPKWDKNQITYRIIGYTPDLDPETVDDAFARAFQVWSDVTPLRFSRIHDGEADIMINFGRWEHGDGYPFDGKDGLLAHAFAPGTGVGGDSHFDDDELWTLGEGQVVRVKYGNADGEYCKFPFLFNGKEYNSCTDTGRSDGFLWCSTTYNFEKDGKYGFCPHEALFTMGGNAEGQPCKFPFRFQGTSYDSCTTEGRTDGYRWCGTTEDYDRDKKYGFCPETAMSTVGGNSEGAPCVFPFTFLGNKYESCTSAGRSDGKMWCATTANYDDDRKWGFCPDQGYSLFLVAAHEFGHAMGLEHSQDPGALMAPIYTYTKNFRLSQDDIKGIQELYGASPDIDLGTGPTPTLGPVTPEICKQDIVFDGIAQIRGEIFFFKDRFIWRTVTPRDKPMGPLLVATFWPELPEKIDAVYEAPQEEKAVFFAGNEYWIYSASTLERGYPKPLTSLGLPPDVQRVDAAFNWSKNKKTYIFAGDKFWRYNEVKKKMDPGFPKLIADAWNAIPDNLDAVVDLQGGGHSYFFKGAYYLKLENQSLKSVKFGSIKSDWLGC
Description: (§1) Recombinant human MMP2 (rhMMP2, R&D system, Minneapolis, MN, USA) was diluted to 0.2 μg/mL in 200 µL assay buffer (50 mm Tris, 10 mM CaCl2, 150 mm NaCl, 0.05% (w/v) Brij 35, pH 7.5). The enzymatic reaction was started by adding 200 μL of 200 μM MSLPs in the assay buffer, and was stirred at 37 °C for 48 h. Final concentrations were 0.1 μg/mL for MMP2 and 100 μM for MSLPs. The reaction was monitored by HPLC between 1 and 48 h on a small aliquot, by deactivating the enzyme with a 10% aqueous TFA solution. MSLPs’ solutions in assay buffer (see below) were used as a blank. A pronase/unspecific protease activity assay on MSLPs was carried out by diluting a mixture of proteolytic enzymes at 2 ng/mL, 0.2 µg/mL and 20 µg/mL in 200 µL assay buffer (50 mm Tris, 10 mm CaCl2, 150 mm NaCl, 0.05% (w/v) Brij 35, pH 7.5). The enzymatic reaction was started by adding 200 μL of 200 μM MSLPs in the assay buffer, and was stirred at 37 °C for 48 h. Final concentrations of 1 ng/mL, 0.1 μg/mL and 10 μg/mL (Pronase) and 100 μM (MSLPs) were used. The reaction was monitored by HPLC between 1 and 48 h on a small aliquot, by deactivating the enzymes with a 10% aqueous TFA solution. MSLPs’ solutions in assay buffer were used as a blank.

pronase = assay: Pronase/unspecific protease activity assay on MSLPs (HPLC); assay type: biochemical; conditions: 100 μM MSLP, 37 °C, up to 48 h, assay buffer pH 7.5
Description: as §1

[1] = system: TNFα release from BV2 microglial cells; assay: TNFα ELISA in LPS-stimulated BV2 cells; assay type: cell-based, mouse; conditions: free glibenclamide 10 to 80 μM for 60 h, then LPS for 8 h
Description: (§2) BV2 microglial cells, RAW264.7 and Neuro2A (N2A) cells were cultured in DMEM supplemented with 10% heat-inactivated FBS, 100 U/mL penicillin and 100 μg/mL streptomycin at 37 °C in a humidified 5% CO2 atmosphere. The day before the experiment, BV2 cells were plated on 24 well plates at 80,000 cells/well; LPS was dissolved in PBS as a stock solution (1 mg/mL), and stored at −20 °C. BV2 cells seeded into multiplates were exposed to LPS (0.5 µg/mL) in presence or absence of glibenclamide (40 µM), empty mApoE-MSLP1-liposomes and mApoE-MSLP1 loaded with glibenclamide. Cells were left in vitro for 40 or 60 h, treated with LPS for additional 8 h before using supernatants for an ELISA assessment of TNFα and IL-6. BV2 cells were seeded in 24-well plates at 80,000 cells/well, then treated with LPS (0.5 µg/mL) to induce TNFα and IL-6 production. Cells were treated for 8 h. Cytokine levels in cells supernatants collected before and after treatment were assayed using the mouse TNF-alpha DuoSet ELISA (R&D Systems, DY410) and the mouse IL-6 DuoSet ELISA kit (R&D Systems, DY406), according to manufacturer’s instructions.

primary neurons [2] = assay: CCK8 cell viability assay on primary neurons; assay type: cell-based; conditions: primary mouse cortical neurons, 16 days in vitro; 24 h; 0.085, 0.85, 8.5 and 85 µM glibenclamide; compared with DMSO controls
Description: C57BL6J mice were maintained under pathogen-free conditions at San Raffaele Hospital mouse facility (Milan, Italy). Procedures were performed according to the guidelines of the Institutional Animal Care and Use Committee of the San Raffaele Scientific Institute and the Ministry of Health (protocol number 372/2021-PR). Primary neuronal cell cultures were established from C57Bl/6J E17.5 embryonic cerebral cortices (Charles River), according to our published protocol. Briefly, we dissected forebrains in cold HBSS supplemented with 0.6% glucose and 5 mM HEPES pH 7.4 to obtain cerebral cortices. Cortices were mechanically dissociated in single cell preparations and re-suspended in culture medium containing Neurobasal, 5 mM HEPES pH 7.4, 0.6% glucose and the 1× B27 supplement. Cells were plated at 30,000 cells/well on 96 multi wells previously coated with poly lysine (0.2 mg/mL), and primed with Dulbecco’s modified Eagle’s media (DMEM) 20% FBS. Cells were maintained in a humidified 5% CO2/95% air environment at 37 °C. […] Cell viability was measured using the Cell Counting Kit-8 (CCK8) Metabolic Assay Kit, following the manufacturer’s protocol (Sigma-Aldrich, Burlington, VT, USA). […] We measured samples absorbance every 30 min at 450 nm, using a Multiskan Sky (Thermo fisher scientific, Waltham, MA, USA). Absorbance readings were subsequently normalized to the mean value of the controls.

[3] = system: IL-6 release from BV2 microglial cells; assay: IL-6 ELISA in LPS-stimulated BV2 cells; assay type: cell-based, mouse; conditions: free glibenclamide 10 to 80 μM for 60 h, then LPS for 8 h
Description: as §2, with “BV2 cells seeded into multiplates were exposed to LPS (0.5 µg/mL) in presence or absence of glibenclamide (40 µM), empty mApoE-MSLP1-liposomes and mApoE-MSLP1 loaded with glibenclamide.” left out

primary neurons [4] = assay: LDH-Glo cytotoxicity assay on primary neurons; assay type: cell-based; conditions: primary mouse cortical neurons; 24 h; 0.085, 0.85, 8.5 and 85 µM glibenclamide; supernatants
Description: Primary neuronal cell cultures were established from C57Bl/6J E17.5 embryonic cerebral cortices (Charles River), according to our published protocol [37]. Briefly, we dissected forebrains in cold HBSS supplemented with 0.6% glucose and 5 mM HEPES pH 7.4 to obtain cerebral cortices. Cortices were mechanically dissociated in single cell preparations and re-suspended in culture medium containing Neurobasal, 5 mM HEPES pH 7.4, 0.6% glucose and the 1× B27 supplement. Cells were plated at 30,000 cells/well on 96 multi wells previously coated with poly lysine (0.2 mg/mL), and primed with Dulbecco’s modified Eagle’s media (DMEM) 20% FBS. […] Neurons were left to mature for 16 days, and upon visual inspection were used for cytotoxicity assays.
A bioluminescent lactate dehydrogenase (LDH)-release assay (LDH-Glo Cytotoxicity Assay, Promega) was used to assess cytotoxicity in supernatants of cells treated with liposomes according to manufacturer’s instruction. […] In each experiment, we calculated the % of cytotoxicity as follows:(Exp.LDH Release − MB)/(Max LDH Release Control − MB)(2) where MB is Medium Background.

Compound: SKK(stearate)SGAKPRA-LTASK(stearate)KS [MSLP-2, MMP2/9-responsive lipopeptide with two stearate tails]
- HPLC peak of lipopeptide after incubation with MMP2 (Recombinant human MMP2): still present
- cleavage by pronase (pronase; 10 μg/mL pronase): complete cleavage
- change of intensity of HPLC peak with pronase (pronase; lower pronase concentrations (1 ng/mL, 0.1 μg/mL)): no significant change

Compound: SKK(stearate)SGPLGIAGQSK(stearate)KS [MSLP-1, MMP2-responsive lipopeptide with two stearate tails]
- HPLC peak of lipopeptide after incubation with MMP2 (Recombinant human MMP2): completely disappeared

Compound: SKK(stearate)GSALGQIGPSK(stearate)KS [c-MSLP]
- HPLC peak of lipopeptide after incubation with MMP2 (Recombinant human MMP2): still present

Compound: COc1ccc(Cl)cc1C(=O)NCCc1ccc(S(=O)(=O)NC(=O)NC2CCCCC2)cc1 [glibenclamide]
- TNFα levels [1]: dose-dependent reduction
- cell viability (CCK8) (primary neurons [2]): did not affect cell viability
- IL-6 levels [3]: dose-dependent reduction
- cytotoxicity (LDH release) (primary neurons [4]): did not increase cytotoxicity
